Results reported in US9988430B2, “Stable GLP-1 based GLP-1/glucagon receptor co-agonists” (Novo Nordisk A/S, priority 2014, dated 2018).
*1 amine or outer side, *2 acyl side, *3 side chain or, on linkers, in order; H or OH if unused. Where a SMILES comes first, the peptide text is derived from it. Side-chain parts run from the residue outwards. [ ]: non-standard residue; d: D form. The star is where a group is joined. C18 diacid = O=C(O)CCCCCCCCCCCCCCCCC(=O)*; γGlu = O=C(O)[C@H](CCC(=O)[*:2])N[*:1]; Desaminohistidyl = O=C(CCc1c[nH]cn1)*; AEEA = NCCOCCOCC(=O)O; Aib = CC(C)(N)C(=O)O

Biological target: T1, human GLP-1 receptor (Homo sapiens, UniProt P43220)
T1 construct: expressed in transfected cells; host or cells: membranes of BHK cells, parent line BHKTS13, clone FCW467-12A
Experiment: Assay (I)(a): GLP-1 receptor potency, CRE luciferase reporter gene assay in BHK cells
Type: cell-based
Conditions: BHK cells expressing human GLP-1 receptor, read-out: EC50 GLP-1R
Method: Assay (I): GLP-1 and Glucagon Receptor Potency The purpose of this example was to test the activity or potency, of the GLP-1 derivatives of the invention, in vitro. The in vitro potency is the measure of human GLP-1 receptor (GLP-1R) or glucagon receptor (glucagonR) activation, respectively, in a whole cell assay. In vitro potency was determined by measuring the cellular response of human GLP-1 or glucagon receptor activation, respectively, in a reporter gene assay. The assay was performed in a BHK cell line that stably expresses either the human GLP-1 receptor or the human glucagon receptor and comprises the DNA for the cAMP response element (CRE) coupled to a promoter and the gene for firefly luciferase (CRE luciferase). […] When assay incubation was completed, the luciferase substrate (luciferin) was added and the enzyme converted luciferin to oxyluciferin and produces bioluminescence. The luminescence was measured as the readout for the assay. (a) GLP-1 Receptor Activation The cells used in this assay (clone FCW467-12A/KZ10-1) were BHK cells with BHKTS13 as a parent cell line. The cells were derived from a clone (FCW467-12A) that expresses the human GLP-1 receptor and were established by further transfection with CRE luciferase to obtain the current clone. The cells were cultured at 5% CO2 in DMEM medium with 10% FBS, 1×GlutaMAX, 1 mg/ml G418, 240 nM MTX (methotrexate) and 1% pen/strep (penicillin/streptomycin). They were aliquoted and stored in liquid nitrogen. Before each assay, an aliquot was taken up and washed three times in PBS before being suspended at the desired concentration in assay medium. For 96-well plates the suspension was made to give a final concentration of 5×10EE3 cells/well. The following chemicals were used in the assay: Pluronic F-68 (10%) (Gibco 2404), Ovalbumin (Sigma A5503), DMEM w/o phenol red (Gibco 11880-028), 1 M Hepes (Gibco 15630), Glutamax 100× (Gibco 35050) and steadylite plus (PerkinElmer 6016757). Assay Medium consisted of DMEM w/o phenol red, 10 mM Hepes, 1×GlutaMAX, 2% Ovalbumin and 0.2% Pluronic F-68. Cell stocks were thawed in a 37° C. water bath. Cells were washed three times in PBS. The cells were counted and adjusted to 5×10EE3 cells/50 μl (1×10EE5 cells/ml) in Assay Medium. A 50 μl aliquot of cells was transferred to each well in the assay plate. Stocks of the test compounds and reference compounds were diluted to a concentration of […] in Assay Medium. Compounds were diluted 10-fold to give the following concentrations: 2×10EE-6 M, 2×10EE-7 M, 2×10EE-8 M; 2×10EE-9 M, 2×10EE-10 M, 2×10EE-11 M, 2×10EE-12 M and 2×10EE-13 M. For each compound a blank assay medium control was also included. A 50 μl aliquot of compound or blank was transferred from the dilution plate to the assay plate. Compounds were tested at the following final concentrations: 1×10EE-6 M, 1×10EE-7 M, 1×10EE-8 M; 1×10EE-9 M, 1×10EE-10 M, 1×10EE-11 M and 1×10EE-12 M and 1×10EE-13 M. The assay plate was incubated for 3 h in a 5% CO2 incubator at 37° C. The assay plate was removed from the incubator and allowed to stand at room temperature for 15 min. A 100 μl aliquot of steadylite plus reagent was added to each well of the assay plate (reagent is light sensitive). Each assay plate was covered with aluminum foil to protect it from light and shaken for 30 min at room temperature. Each assay plate was read in a Perkin Elmer TopCount NXT instrument. The data from the TopCount instrument was transferred to GraphPad Prism software. The software performed a non-linear regression (log(agonist) vs response-Variable slope (four parameter)). EC50 values were calculated by the software and reported in pM.

T1 sequence (P43220 24-463): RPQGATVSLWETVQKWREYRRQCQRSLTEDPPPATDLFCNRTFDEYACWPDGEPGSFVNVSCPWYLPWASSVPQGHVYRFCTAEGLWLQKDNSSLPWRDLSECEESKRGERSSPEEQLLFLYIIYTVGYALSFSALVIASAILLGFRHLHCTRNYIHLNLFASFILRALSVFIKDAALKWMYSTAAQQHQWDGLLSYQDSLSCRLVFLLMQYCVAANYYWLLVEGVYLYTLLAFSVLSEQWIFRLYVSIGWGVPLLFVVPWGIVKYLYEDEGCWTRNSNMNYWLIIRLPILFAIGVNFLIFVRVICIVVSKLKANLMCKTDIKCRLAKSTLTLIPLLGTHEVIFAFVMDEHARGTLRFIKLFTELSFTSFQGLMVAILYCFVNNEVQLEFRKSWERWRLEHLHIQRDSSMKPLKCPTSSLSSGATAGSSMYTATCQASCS

SMILES | EC50 [pM]
CC[C@H](C)[C@H](NC(=O)[C@H](Cc1ccccc1)NC(=O)[C@H](CCCCNC(=O)COCCOCCNC(=O)COCCOCCNC(=O)CC[C@H](NC(=O)CC[C@H](NC(=O)CC[C@H](NC(=O)CCCCCCCCCCCCCCCCC(=O)O)C(=O)O)C(=O)O)C(=O)O)NC(=O)[C@H](CCCNC(=N)N)NC(=O)[C@H](C)NC(=O)[C@H](C)NC(=O)[C@H](CCC(N)=O)NC(=O)[C@H](CCC(=O)O)NC(=O)[C@H](CCC(=O)O)NC(=O)[C@H](CC(C)C)NC(=O)[C@H](Cc1ccc(O)cc1)NC(=O)[C@H](CCCNC(=N)N)NC(=O)[C@H](CO)NC(=O)[C@@H](NC(=O)[C@H](CC(=O)O)NC(=O)[C@H](CO)NC(=O)[C@@H](NC(=O)[C@H](Cc1ccccc1)NC(=O)[C@@H](NC(=O)CNC(=O)[C@H](Cc1c[nH]cn1)NC(=O)[C@H](C)NC(=O)CCc1c[nH]cn1)[C@@H](C)O)[C@@H](C)O)C(C)C)C(=O)N[C@@H](C)C(=O)N[C@@H](Cc1c[nH]c2ccccc12)C(=O)N[C@@H](CC(C)C)C(=O)N[C@@H](CC(C)C)C(=O)N[C@@H](CCCNC(=N)N)C(=O)O [Example 18, N^ε27-[2-[2-[2-[[2-[2-[2-[[(4S)-4-carboxy-4-[[(4S)-4-carboxy-4-[[(4S)-4-carboxy-4-(17-carboxyheptadecanoylamino)butanoyl]amino]butanoyl]amino]butanoyl]amino]ethoxy]ethoxy]acetyl]amino]ethoxy]ethoxy]acetyl]-[Imp7,His9,Arg18,Glu22,Arg26,Lys27,Leu33,Arg34]-GLP-1-(7-34)-peptide] (Desaminohistidyl-AHGTFTSDVSRYLEEQAARK([AEEA-AEEA-γGlu-γGlu-γGlu-C18 diacid])FIAWLLR-OH) | 8
CC[C@H](C)[C@H](NC(=O)[C@H](Cc1ccccc1)NC(=O)[C@H](CCC(=O)O)NC(=O)[C@H](CCCNC(=N)N)NC(=O)[C@H](C)NC(=O)[C@H](C)NC(=O)[C@H](CCC(N)=O)NC(=O)[C@H](C)NC(=O)[C@H](CCC(=O)O)NC(=O)[C@H](CC(C)C)NC(=O)[C@H](Cc1ccc(O)cc1)NC(=O)[C@H](CCCCN)NC(=O)[C@H](CO)NC(=O)[C@@H](NC(=O)[C@H](CC(=O)O)NC(=O)[C@H](CO)NC(=O)[C@@H](NC(=O)[C@H](Cc1ccccc1)NC(=O)[C@@H](NC(=O)CNC(=O)[C@H](Cc1c[nH]cn1)NC(=O)C(C)(C)NC(=O)CCc1c[nH]cn1)[C@@H](C)O)[C@@H](C)O)C(C)C)C(=O)N[C@@H](C)C(=O)N[C@@H](Cc1c[nH]c2ccccc12)C(=O)N[C@@H](CC(C)C)C(=O)N[C@@H](CC(C)C)C(=O)N[C@@H](CCCCNC(=O)CC[C@H](NC(=O)CC[C@H](NC(=O)COCCOCCNC(=O)CC[C@H](NC(=O)CC[C@H](NC(=O)CCCCCCCCCCCCCCCCC(=O)O)C(=O)O)C(=O)O)C(=O)O)C(=O)O)C(=O)N[C@H](C(N)=O)[C@@H](C)O [Example 34, N^ε34-[(4S)-4-carboxy-4-[[(4S)-4-carboxy-4-[[2-[2-[2-[[(4S)-4-carboxy-4-[[(4S)-4-carboxy-4-(17-carboxyheptadecanoylamino)butanoyl]amino]butanoyl]amino]ethoxy]ethoxy]acetyl]amino]butanoyl]amino]butanoyl]-[Imp7,Aib8,His9,Lys18,Ala22,Arg26,Leu33,Thr35]-GLP-1-(7-35)-peptide amide] (Desaminohistidyl-[Aib]HGTFTSDVSKYLEAQAAREFIAWLLK([γGlu-γGlu-AEEA-γGlu-γGlu-C18 diacid])T-NH2) | 3
CC[C@H](C)[C@H](NC(=O)[C@H](Cc1ccccc1)NC(=O)[C@H](CCC(=O)O)NC(=O)[C@H](CCCNC(=N)N)NC(=O)[C@H](C)NC(=O)[C@H](C)NC(=O)[C@H](CCCNC(=N)N)NC(=O)CNC(=O)[C@H](CCC(=O)O)NC(=O)[C@H](CC(C)C)NC(=O)[C@H](Cc1ccc(O)cc1)NC(=O)[C@H](CCCNC(=N)N)NC(=O)[C@H](CO)NC(=O)[C@@H](NC(=O)[C@H](CC(=O)O)NC(=O)[C@H](CO)NC(=O)[C@@H](NC(=O)[C@H](Cc1ccccc1)NC(=O)[C@@H](NC(=O)CNC(=O)[C@H](Cc1c[nH]cn1)NC(=O)C(C)(C)NC(=O)CCc1c[nH]cn1)[C@@H](C)O)[C@@H](C)O)C(C)C)C(=O)N[C@@H](C)C(=O)N[C@@H](Cc1c[nH]c2ccccc12)C(=O)N[C@@H](CC(C)C)C(=O)N[C@@H](CC(C)C)C(=O)N[C@@H](CCCCNC(=O)CC[C@H](NC(=O)CC[C@H](NC(=O)COCCOCCNC(=O)CC[C@H](NC(=O)CC[C@H](NC(=O)CCCCCCCCCCCCCCCCC(=O)O)C(=O)O)C(=O)O)C(=O)O)C(=O)O)C(=O)NCC(=O)N[C@@H](CO)C(=O)NCC(=O)O [Example 36, N^ε34-[(4S)-4-carboxy-4-[[(4S)-4-carboxy-4-[[2-[2-[2-[[(4S)-4-carboxy-4-[[(4S)-4-carboxy-4-(17-carboxyheptadecanoylamino)butanoyl]amino]butanoyl]amino]ethoxy]ethoxy]acetyl]amino]butanoyl]amino]butanoyl]-[Imp7,Aib8,His9,Arg18,Arg23,Arg26,Leu33,Ser36]-GLP-1-(7-37)-peptide] (Desaminohistidyl-[Aib]HGTFTSDVSRYLEGRAAREFIAWLLK([γGlu-γGlu-AEEA-γGlu-γGlu-C18 diacid])GSG-OH) | 6
